Experimental data as given in the NIST ThermoML archive (doi:10.1021/je025621h).
Numbers after ± are expanded uncertainties.

Conditions: Liquid

C1CCCCC1 [cyclohexane]
vapor or sublimation pressure (302.92 K): 16.06 ± 0.037 kPa
vapor or sublimation pressure (304.19 K): 16.95 ± 0.037 kPa
vapor or sublimation pressure (306.91 K): 19.05 ± 0.038 kPa
vapor or sublimation pressure (308.27 K): 20.16 ± 0.038 kPa
vapor or sublimation pressure (309.9 K): 21.56 ± 0.039 kPa
vapor or sublimation pressure (313.16 K): 24.61 ± 0.04 kPa
vapor or sublimation pressure (318.19 K): 30.03 ± 0.042 kPa
vapor or sublimation pressure (323.14 K): 36.23 ± 0.044 kPa
vapor or sublimation pressure (328.16 K): 43.51 ± 0.047 kPa
vapor or sublimation pressure (331.9 K): 49.68 ± 0.05 kPa
vapor or sublimation pressure (333.16 K): 51.9 ± 0.051 kPa
vapor or sublimation pressure (333.17 K): 51.9 ± 0.051 kPa
vapor or sublimation pressure (338.16 K): 61.56 ± 0.054 kPa
vapor or sublimation pressure (343.16 K): 72.53 ± 0.058 kPa
vapor or sublimation pressure (345.42 K): 77.94 ± 0.061 kPa
vapor or sublimation pressure (348.05 K): 84.73 ± 0.063 kPa

CCO [ethanol]
vapor or sublimation pressure (312.17 K): 17 ± 0.037 kPa
vapor or sublimation pressure (313.43 K): 18.15 ± 0.038 kPa
vapor or sublimation pressure (318.15 K): 23.07 ± 0.04 kPa
vapor or sublimation pressure (318.24 K): 23.18 ± 0.04 kPa
vapor or sublimation pressure (320.87 K): 26.39 ± 0.041 kPa
vapor or sublimation pressure (323.15 K): 29.48 ± 0.043 kPa
vapor or sublimation pressure (326.13 K): 34 ± 0.044 kPa
vapor or sublimation pressure (326.16 K): 34.02 ± 0.044 kPa
vapor or sublimation pressure (328.14 K): 37.34 ± 0.046 kPa
vapor or sublimation pressure (328.17 K): 37.39 ± 0.046 kPa
vapor or sublimation pressure (330.65 K): 41.9 ± 0.048 kPa
vapor or sublimation pressure (333.16 K): 46.94 ± 0.05 kPa
vapor or sublimation pressure (336.1 K): 53.47 ± 0.053 kPa
vapor or sublimation pressure (336.14 K): 53.56 ± 0.053 kPa
vapor or sublimation pressure (338.16 K): 58.48 ± 0.056 kPa
vapor or sublimation pressure (343.15 K): 72.3 ± 0.061 kPa
vapor or sublimation pressure (348.14 K): 88.77 ± 0.068 kPa
vapor or sublimation pressure (351.38 K): 101.11 ± 0.069 kPa
vapor or sublimation pressure (351.42 K): 101.23 ± 0.069 kPa

O [water]
vapor or sublimation pressure (327.13 K): 15 ± 0.036 kPa
vapor or sublimation pressure (328.16 K): 15.75 ± 0.037 kPa
vapor or sublimation pressure (330.78 K): 17.85 ± 0.037 kPa
vapor or sublimation pressure (333.15 K): 19.94 ± 0.038 kPa
vapor or sublimation pressure (335.82 K): 22.53 ± 0.039 kPa
vapor or sublimation pressure (338.15 K): 25.02 ± 0.04 kPa
vapor or sublimation pressure (340.67 K): 27.98 ± 0.042 kPa
vapor or sublimation pressure (343.16 K): 31.21 ± 0.043 kPa
vapor or sublimation pressure (346.13 K): 35.42 ± 0.044 kPa
vapor or sublimation pressure (348.14 K): 38.55 ± 0.046 kPa
vapor or sublimation pressure (353.14 K): 47.36 ± 0.05 kPa
vapor or sublimation pressure (358.14 K): 57.79 ± 0.053 kPa
